Test results: ChEMBL document CHEMBL1123983, “Bis(4-hydroxyphenyl)[2-(phenoxysulfonyl)phenyl]methane: isolation and structure elucidation of a novel estrogen from commercial preparations of phenol red (phenolsulfonphthalein)” (J Med Chem, 1988)

Biological target: Estrogen receptor (Homo sapiens) (UniProt Q92731+P03372)
Experiment: Estrogen-related induction of progesterone receptor expression in MCF-7 cells at 10e-6 M
Format: cell-based
Conditions: MCF7

PR level, % of control: 1680%
SMILES: O=S(=O)(Oc1ccccc1)c1ccccc1C(c1ccc(O)cc1)c1ccc(O)cc1
